These results are taken from US7384656B2, “Anti-allergy composition and related method” (Access Business Group International LLC, priority 2004, dated 2008).

Holding throughout (assay type): cell-based
The subject of test [1] is IgE secretion by U266 human myeloma cells. Put plainly: IgE secretion by U266 human myeloma cells (IgE ELISA of supernatants). The conditions noted are these: for Percent Control, IgE Secretion (IgE) (Table VIII): 100 μg/ml (no concentration printed for Formula). Here is the method: The methodology used to obtain the results of FIG. 3 will now be described. First, U266 human myeloma cells, available from ATCC of Manassas, Va. were plated in 96 well plates at 4×10^4/well. The cells were exposed to the sample combinations of ingredients listed in Table I, each combination referred to as a “sample.” Stock solutions of all samples were prepared in a solution of DMSO, ethanol, and water present in a ratio of 5:3:2 at 100 mg/ml. Each sample was then diluted to 100 μg/ml in media. Duplicate plates of each sample were prepared so that viability could be determined multiple times for each sample, with the results of the multiple samples averaged following treatment of the cells. The plates were incubated an additional 48 hours. Thereafter, the amount of IgE in the supernatants was measured using a conventional quantitative IgE ELISA kit available from Bethyl Laboratories of Montgomery, Tex. Next, the measured OD450 data from the IgE ELISA was inputted into a calibration graph, illustrated in FIG. 4, to determine the concentration of IgE in ng/ml in each supernatant. This calibration graph was generated by measuring the OD450 of multiple, known concentrations (in nanograms per ml) of purified IgE. As shown in the graph, the X-axis indicates the concentrations of the IgE in ng/ml; and the Y-axis indicates the OD450 derived from each of the concentrations. The line 100 connects the data points, while line 110 is a trend line corresponding to the equation in this particular embodiment of: Y=0.2909X−0.2527 Equation 1 With the IgE calibration graph, the amount of IgE for each sample was determined, and the subsequent data was input into FIG. 3 for comparative analysis.
(In general: An ELISA detects its analyte on a solid surface through an enzyme-linked reagent.)

Test [2] relates to PGD2 release, RBL-2H3 cells. As to the kind of experiment: PGD2 release from IgE-sensitized, DNP-BSA stimulated RBL-2H3 cells (ELISA). Particulars: 10 μg/ml. The procedure: The methodology used to obtain the results of FIG. 9 will now be described. First, RBL-2H3 cells, available from ATCC (American Type Culture Collection) of Manassas, Va., were plated in 24 well plates at 5×10^4/well. Following adherence, the cells were exposed to the ingredients or combination of ingredients noted in FIG. 9, also referred to as samples. The samples were used at the concentrations noted in Table VI. Stock solutions of all samples were prepared in a solution of DMSO, ethanol, and water present in a ratio of 5:3:2 at 100 mg/ml. Each sample was then diluted in media to the final concentration. The cells were then incubated overnight with the samples. The following day a mouse anti-dinitrophenyl (DNP) IgE antibody, available from Sigma of St. Louis, Mo., was added to the cells at a final concentration of 1 ng/ml. The cells were incubated for 1.5 hr at 37° C. to allow binding of the IgE molecule to the cellular IgE receptor via the constant region of the antibody. Following this incubation period, the cells were washed twice. A solution containing DNP conjugated to BSA (DNP-BSA), available from Calbiochem of San Diego, Calif., was added to the cells at 0.5 ng/ml. […] Next, the measured OD450 data from the ELISA was inputted into a calibration graph to determine the amount by which histamine was reduced relative to an untreated control sample. […]

Test [3] relates to IgE receptor (FcεRIα) on RBL-2H3 cells. As to the kind of experiment: IgE receptor expression on RBL-2H3 cells (anti-FcεRIα cell ELISA normalized to MTT viability). The conditions noted are these: 100 μg/ml. Here is the method: The methodology used to obtain the results of FIG. 1 will now be described. First, RBL-2H3 cells, available from ATCC (American Type Culture Collection) of Manassas, Va., were plated in 96 well plates at 3×10^4/well. Following adherence to the wells, the cells were exposed to the sample combinations of ingredients listed in Table I, each combination referred to as a “sample.” Stock solutions of all samples were prepared in a solution of DMSO, ethanol, and water present in a ratio of 5:3:2 at 100 mg/ml. […] Duplicate plates of each sample were prepared so that viability could be determined multiple times for each sample, with the results of the multiple samples averaged following treatment of the cells. The plates were incubated an additional 48 hours. To measure IgE-receptor expression, the cells were fixed for 2 hours with 1% gluteraldehyde. Following fixation, the cells were washed twice with PBS-Tween 20 (0.01%), available from Aldrich of Milwaukee, Wis. Protein binding sites were blocked for 2 hours with 2% non-fat dry milk in PBS (Phosphate Buffer Saline buffered at pH 7.3). The cells were washed twice. The primary antibody, Rabbit anti-FcεRIα, available from Upstate Group, Inc., Lake Placid, N.Y., was added to the wells and diluted 1:4000 with 0.2% BSA (Bovine Serum Albumin). Following a 2 hour incubation, the wells were washed 5× with PBS-Tween 20 (0.01%) solutions. The secondary antibody, Goat anti-rabbit IgG-peroxidase, available from Sigma-Aldrich of St. Louis, Mo., was added to the wells at 1:20000 with 0.2% BSA. Following a 1 hour incubation the wells were washed five times. 100 μliters (microliters) of TMB (3,3′,5,5±Tetramethyl benzidine dihydrochloride) Substrate, available from Chemicon International of Temecula, Calif., was added to the wells. Subsequent color development was stopped by the addition of a sufficient amount, H2SO4 (for example, 100 μliters at 1 Normal). For each of the multiple samples of the combination, the OD450 (Optical Density measured at a wavelength of 450 nanometers) was read on a plate reader. Continuing with a description of the methodology to obtain the data in FIG. 1, the viability of the cells was next determined by incubating the cells in the second plate with MTT in a concentration of 1 mg/ml for 3 hours. The reduced MTT was extracted with 70% isopropanol and the OD540 (Optical Density at a wavelength of 540 nanometers) was read for each of the multiple samples.

Where [4] appears, read: listed as Luteolin from Perilla seed.

For the compound `O=c1cc(-c2ccc(O)c(O)c2)oc2cc(O)cc(O)c12` [Luteolin], the figures for the “Percent Control, IgE Secretion (IgE) (Table VIII)” value in test [1] and in test [1] (setting [4]) were “about 95%” and 95.5%, respectively. In addition, the “Percent Control IgE-Secretion (Table V)” value in test [1] (100 μg/ml, relative to untreated control cells) was 53%. Moreover, the “Percent Control of PGD2 Release (Table VI)” value in test [2] is 68%. Moreover, the “Percent Control, IgE Receptor Expression (IgE-R) (Table VIII)” value is listed as “about 90%” in test [3] and 90.1% in test [3] (setting [4]). The “effect on IgE receptor expression, in words (FIG. 7)” value in test [3] is given as “significant effect”. Further, in test [3] (relative to untreated control cells), the “Percent Control IgE-Receptor (Table IV)” value came out at 82%.
